Measurements as given in patent EP2790511B1 (Merck Sharp & Dohme Corp., priority 2011, dated 2013).

biological target: T1, hROMK (hKir1.1) (Homo sapiens, UniProt P48048); assay: Thallium Flux Assay; type: cell-based; conditions: HEK293 cells stably expressing hROMK (hKir1.1), FLIPR-Tetra; read-out: Thallium Flux IC50
T1 construct: expressed in transfected cells
T1 sequence (P48048 1-391): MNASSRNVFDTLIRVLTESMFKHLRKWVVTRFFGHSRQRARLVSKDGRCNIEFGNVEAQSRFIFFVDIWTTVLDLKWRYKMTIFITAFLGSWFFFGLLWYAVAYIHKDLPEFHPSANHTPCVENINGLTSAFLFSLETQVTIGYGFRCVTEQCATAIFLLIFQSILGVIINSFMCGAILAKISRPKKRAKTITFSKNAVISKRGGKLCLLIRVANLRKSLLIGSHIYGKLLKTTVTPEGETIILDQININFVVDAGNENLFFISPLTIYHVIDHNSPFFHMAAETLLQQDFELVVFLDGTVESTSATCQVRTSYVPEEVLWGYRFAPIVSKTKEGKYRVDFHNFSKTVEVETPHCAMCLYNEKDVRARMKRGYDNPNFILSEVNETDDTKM
Description: Cell Culture Conditions- HEK293 cells stably expressing hROMK (hKir1.1) were grown at 37°C in a 10%CO2 humidified incubator in complete growth media: Dulbecco's Modified Eagle Medium supplemented with non-essential amino acids, Penicillin/Streptomycin/Glutamine, G418 and FBS. At >80% confluency, aspirate the media from the flask and rinse with 10 mL Calcium/Magnesium-free PBS. […] To dislodge the cell, gently bang the side of the flask with your hand. Triturate the cells completely and then transfer the cells to 25 mL complete media. Centrifuge at 1,500 rpm for 6 min followed by resuspension in complete growth media and determine cell concentration. […] Under ideal growth conditions and appropriate tissue culture practices, this cell line is stable for 40-45 passages.
• FluxOR™ Reagent (Component A) • FluxOR™ Assay Buffer (Component B) - 10X Concentrate • PowerLoad™ Concentrate (Component C) - 100X Concentrate • Probenecid (Component D) - Lyophilized sample is kept at -20°C. Water soluble, 100X after solubilization in 1 mL water. […] Store at 4°C. • Thallium sulfate (Tl2SO4) Concentrate (Component G) - 50 mM in water. Store at 4°C • DMSO (dimethyl sulfoxide, Component H) - 1 mL (100%)
• 1000X FluxOR™ Reagent: Reconstitute a vial of component A in 100 µl DMSO; Mix well; Store 10 µl aliquots at -20°C • 1X FluxOR™ Assay Buffer: Dilute Component B 10-fold with water; Adjust pH to 7.4 with Hepes/NaOH; Filter and store at 4°C • Probenecid/Assay Buffer: 100 mL of 1X FluxOR™ Assay Buffer; 1 mL of reconstituted component D; Store at 4°C • Loading Buffer (per microplate): 10 µl 1000X FluxOR™ Reagent; 100 µl component C; 10 mL Probenecid/Assay Buffer • Compound Buffer (per microplate): 20 mL Probenecid/Assay Buffer; 0.3 mM ouabain (10 mM ouabain in water can be stored in amber bottle/aluminum foil at room temperature); Test compound • 1X FluxOR™Chloride-Free Buffer: Prepare 1X working solution in water. Can be stored at room temperature • Stimulant Buffer (prepared at 5X final concentration in 1X FluxOR™Chloride-Free Buffer): 7.5 mM Thallium sulfate and 0.75 mM Potassium sulfate (to give a final assay concentration of 3 mM Thallium/ 0.3 mM Potassium). Store at 4°C when not in use. If kept sterile, this solution is good for months.
Assay protocol- The ROMK channel functional thallium flux assay is performed in 384 wells, using the FLIPR-Tetra instrument. HEK-hKir1.1 cells are seeded in Poly-D-Lysine microplates and kept in a 37°C-10%CO2 incubator overnight. On the day of the experiment, the growth media is replaced with the FluxOR™ reagent loading buffer and incubated, protected from light, at ambient temperature (23-25°C) for 90 min. The loading buffer is replaced with assay buffer ± test compound followed by 30 min incubation at ambient temperature, where the Thallium/Potassium stimulant is added to the microplate.
• 1. Seed HEK-hKir1.1 cells (50 µl at 20,000 cells/well) in 384-well PDL coated Microplates • 2. Allow cells to adhere overnight in humidified 37°C/10%CO2 incubator • 3. Completely remove cell growth media from microplate and replace with 25 µl loading buffer • 4. Incubate Microplate at room temperature, protected form light, for 90 min • 5. Remove loading buffer and replace with 25 µl 1x Assay Buffer ± test compound. • 6. Incubate microplate at room temperature, protected form light, for 30 min • 7. […] Excitation = 400 nm, Emission = 460 & 580 nm. Collect data for ∼ 10 min.
Data Calculation- The fluorescence intensity of wells containing 3 µM of a standard control ROMK inhibitor of the present invention is used to define the ROMK-sensitive component of thallium flux. Fluorescence in the presence of test compounds is normalized to control values to provide % fluorescence change.

SMILES	IC50 [nM]
N#Cc1c(F)ccc([C@@H]2CN3CCN(C(=O)Cc4ccc(-n5cnnn5)cn4)C[C@H]3CO2)c1Cl [Example 53]	60
N#Cc1c(F)ccc([C@@H]2CN3CCN(C(=O)Cc4ccc(-n5cnnn5)cn4)C[C@H]3CO2)c1F [Example 54, 2,6-difluoro-3-[(3R,9aS)-8-{[5-(1H-tetrazol-1-yl)pyridin-2-yl]acetyl}octahydropyrazino[2,1-c][1,4]oxazin-3-yl]benzonitrile]	100
COc1cc([C@H]2CN3CCN(C(=O)Cc4ccc(-n5cnnn5)nc4)C[C@H]3CO2)ccc1C#N [Example 56, 2-methoxy-4-[(3S,9aS)-8-{[6-(1H-tetrazol-1-yl)pyridin-3-yl]acetyl}octahydropyrazino[2,1-c][1,4]oxazin-3-yl]benzonitrile]	120
COc1c([C@@H]2CN3CCN(C(=O)Cc4ccc(-n5cnnn5)nc4)C[C@H]3CO2)ccc(F)c1C#N [Example 60, 6-fluoro-2-methoxy-3-[(3R,9aS)-8-{[6-(1H-tetrazol-1-vl)pvridin-3-yl]acetyl}octahydropyrazino[2,1-c][1,4]oxazin-3-yl]benzonitrile]	140
COc1c([C@@H]2CN3CCN(C(=O)Cc4ccc(-n5cnnn5)cn4)C[C@H]3CO2)ccc(F)c1C#N [Example 62, 6-fluoro-2-methoxy-3-[(3R,9aS)-8-{[5-(1H-tetrazol-1-vl)pvridin-2-yl]acetyl}octahydropyrazino[2,1-c][1,4]oxazin-3-yl]benzonitrile]	460
COc1c([C@H]2CN3CCN(C(=O)Cc4ccc(-n5cnnn5)cn4)C[C@H]3CO2)ccc(F)c1C#N [Example 63, 6-fluoro-2-methoxy-3-[(3S,9aS)-8-{[5-(1H-tetrazol-1-vl)pvridin-2-yl]acetyl}octahydropyrazino[2,1-c][1,4]oxazin-3-yl]benzonitrile]	180
Cc1c([C@H]2CN3CCN(C(=O)Cc4ccc(-n5cnnn5)nc4)C[C@H]3CO2)ccc(Cl)c1C#N [Example 64, 6-chloro-2-methyl-3-[(3S,9aS)-8-{[6-(1H-tetrazol-1-yl)pyridin-3-yl]acetyl}octahydropyrazino[2,1-c][1,4]oxazin-3-yl]benzonitrile]	680
Cc1c([C@@H]2CN3CCN(C(=O)Cc4ccc(-n5cnnn5)nc4)C[C@H]3CO2)ccc(Cl)c1C#N [Example 65]	150
N#Cc1ccc([C@@H]2CN3CCN(C(=O)Cc4ccc(-n5cnnn5)nc4)C[C@H]3CO2)cc1F [Example 66, 2-fluoro-4-[(3R,9aS)-8-{[6-(1H-tetrazol-1-yl)pyridin-3-yl]acetyl}octahydropyrazino[2,1-c][1,4]oxazin-3-yl]benzonitrile]	370
N#Cc1ccc([C@H]2CN3CCN(C(=O)Cc4ccc(-n5cnnn5)nc4)C[C@H]3CO2)cc1F [Example 67, 2-fluoro-4-[(3S,9aS)-8-{[6-(1H-tetrazol-1-yl)pyridin-3-yl]acetyl}octahydropyrazino[2,1-c][1,4]oxazin-3-yl]benzonitrile]	70
Cc1c([C@@H]2CN3CCN(C(=O)Cc4ccc(-n5cnnn5)nc4)C[C@H]3CO2)csc1C#N [Example 68, 3-methyl-4-[(3R,9aS)-8-{[6-(1H-tetrazol-1-yl)pyridin-3-yl]acetyl}octahydropyrazino[2,1-c][1,4]oxazin-3-yl]thiophene-2-carbonitrile]	40
Cc1c([C@H]2CN3CCN(C(=O)Cc4ccc(-n5cnnn5)nc4)C[C@H]3CO2)csc1C#N [Example 69, 3-methyl-4-[(3S,9aS)-8-{[6-(1H-tetrazol-1-yl)pyridin-3-yl]acetyl}octahydropyrazino[2,1-c][1,4]oxazin-3-yl]thiophene-2-carbonitrile]	110
Cc1c([C@H]2CN3CCN(C(=O)Cc4ccc(-n5cnnn5)cn4)C[C@H]3CO2)csc1C#N [Example 71, 3-methyl-4-[(3S,9aS)-8-{[5-(1H-tetrazol-1-yl)pyridin-2-yl]acetyl}octahydropyrazino[2,1-c][1,4]oxazin-3-yl]thiophene-2-carbonitrile]	390
Cc1cc2c(cc1[C@@H]1CN3CCN(C(=O)Cc4ccc(-n5cnnn5)nc4)C[C@H]3CO1)COC2=O [Example 72, 6-methyl-5-[(3R,9aS)-8-{[6-(1H-tetrazol-1-yl)pyridin-3-yl]acetyl}octahydropyrazino[2,1-c][1,4]oxazin-3-yl]-2-benzofuran-1(3H)-one]	750
Cc1cc2c(cc1[C@H]1CN3CCN(C(=O)Cc4ccc(-n5cnnn5)nc4)C[C@H]3CO1)COC2=O [Example 73, 6-methyl-5-[(3S,9aS)-8-{[6-(1H-tetrazol-1-yl)pyridin-3-yl]acetyl}octahydropyrazino[2,1-c][1,4]oxazin-3-yl]-2-benzofuran-1(3H)-one]	230
Cc1c(C#N)cncc1[C@@H]1CN2CCN(C(=O)Cc3ccc(-n4cnnn4)nc3)C[C@H]2CO1 [Example 74, 4-methyl-5-[(3R,9aS)-8-{[6-(1H-tetrazol-1-yl)pyridin-3-yl]acetyl}octahydropyrazino[2,1-c][1,4]oxazin-3-yl]pyridine-3-carbonitrile]	390
Cc1nc(-n2cnnn2)ccc1CC(=O)N1CCN2C[C@@H](c3ccc(F)c(C#N)c3C)OC[C@@H]2C1 [Example 77, 6-fluoro-2-methyl-3-[(3R,9aS)-8-{[2-methyl-6-(1H-tetrazol-1-vl)pvridin-3-yl]acetyl}octahydropyrazino[2,1-c][1,4]oxazin-3-yl]benzonitrile]	100

same assay, conditions: Thallium Flux IC50

SMILES	IC50 [nM]
O=C1OCCc2cc([C@H]3CN4CCN(C(=O)Cc5ccc(-n6cnnn6)nc5)C[C@@H]4CO3)ccc21 [Example 55, 6-[(3S,9aR)-8-{[6-(1H-tetrazol-1-yl)pyridin-3-yl]acetyl}octahydropyrazino[2,1-c][1,4]oxazin-3-yl]-3,4-dihydro-1H-isochromen-1-one]	120
Cc1c([C@@H]2CN3CCN(C(=O)Cc4ccc(-n5cnnn5)cn4)C[C@H]3CO2)csc1C#N [Example 70, 3-methyl-4-[(3R,9aS)-8-{[5-(1H-tetrazol-1-yl)pyridin-2-yl]acetyl}octahydropyrazino[2,1-c][1,4]oxazin-3-yl]thiophene-2-carbonitrile]	270
Cc1c([C@@H]2CN3CCN(C(=O)Cc4cnc(-n5cnnn5)cn4)C[C@H]3CO2)ccc(F)c1C#N [Example 75, 6-fluoro-2-methyl-3-[(3R,9aS)-8-{[5-(1H-tetrazol-1-yl)pyrazin-2-yl]acetyl}octahydropyrazino[2,1-c][1,4]oxazin-3-yl]benzonitrile]	130
Cc1c([C@H]2CN3CCN(C(=O)Cc4cnc(-n5cnnn5)cn4)C[C@H]3CO2)ccc(F)c1C#N [Example 76, 6-fluoro-2-methyl-3-[(3S,9aS)-8-{[5-(1H-tetrazol-1-yl)pyrazin-2-yl]acetyl}octahydropyrazino[2,1-c][1,4]oxazin-3-yl]benzonitrile]	150
